Reference: ChEMBL document CHEMBL1122939, “N6-cycloalkyladenosines. Potent, A1-selective adenosine agonists” (J Med Chem, 1985)

How the values were obtained:
[1] = Lipophilicity value was evaluated; type: physicochemical; settings: octanol/water
Adenosine receptor A1 = biological target: T1, Adenosine receptor A1 (Rattus norvegicus, UniProt P25099)
T1 sequence (P25099 whole entry): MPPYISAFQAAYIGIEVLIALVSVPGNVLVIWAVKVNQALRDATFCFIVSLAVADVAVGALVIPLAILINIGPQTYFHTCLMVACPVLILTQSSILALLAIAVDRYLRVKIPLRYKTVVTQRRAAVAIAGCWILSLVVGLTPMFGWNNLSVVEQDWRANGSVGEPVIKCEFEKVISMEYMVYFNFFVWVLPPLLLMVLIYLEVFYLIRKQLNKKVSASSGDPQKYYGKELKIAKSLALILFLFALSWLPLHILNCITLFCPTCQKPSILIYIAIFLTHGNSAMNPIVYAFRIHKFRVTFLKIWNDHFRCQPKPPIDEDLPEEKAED

Adenosine A2 receptor = Adenosine A2 receptor (Rattus norvegicus, UniProt P29276+P30543)
Description: Displacement of [3H]-NECA from adenosine A2 receptor of rat striatal membrane

Log k [1] | Ki (Adenosine receptor A1) | Ki (Adenosine A2 receptor) | SMILES
1.22 | 0.777 nM | 263 nM | OC[C@H]1O[C@@H](n2cnc3c(NC4CCC4)ncnc32)[C@H](O)[C@@H]1O
1.6 |  |  | OC[C@H]1O[C@@H](n2cnc3c(NC4CCCCC4)ncnc32)[C@H](O)[C@@H]1O
0.53 | 319 nM | 1240 nM | OC[C@H]1O[C@@H](n2cnc3c(NC4CC4)ncnc32)[C@H](O)[C@@H]1O
1.56 |  | 462 nM | OC[C@H]1O[C@@H](n2cnc3c(NC4CCCC4)ncnc32)[C@H](O)[C@@H]1O [N6-CYCLOPENTYLADENOSINE]
3.62 | 100 nM | 5190 nM | OC[C@H]1OC(n2cnc3c(NC4CCCCCCCCC4)ncnc32)[C@H](O)[C@@H]1O (some centres undefined)
2.9 | 4.03 nM | 2450 nM | OC[C@H]1O[C@@H](n2cnc3c(NC4CCCCCCC4)ncnc32)[C@H](O)[C@@H]1O
 | 144 nM | 3250 nM | Cn1c(=O)[nH]c2c(ncn2C2O[C@H](CO)[C@@H](O)[C@H]2O)c1=N (some centres undefined)
4.52 | 5390 nM | 47700 nM | OC[C@H]1OC(n2cnc3c(NC4CCCCCCCCCCC4)ncnc32)[C@H](O)[C@@H]1O (some centres undefined)
2.4 | 2.79 nM | 1690 nM | OC[C@H]1O[C@@H](n2cnc3c(NC4CCCCCC4)ncnc32)[C@H](O)[C@@H]1O
 | 8.74 nM |  | Nc1nc(Cl)nc2c1ncn2[C@@H]1O[C@H](CO)[C@@H](O)[C@H]1O
